{
  "source": "patent US20230310432A1",
  "about": "(JULIUS-MAXIMILIANS-UNIVERSITÄT WÜRZBURG, priority 2017, published 2023)",
  "key": {"[1]": {"tested_on": "NFAT inducible GFP reporter gene in CD19CAR/41BB T cells", "assay": "NFAT-inducible GFP reporter expression in CAR-T cells in vivo", "design": "species or system NSG mice", "excerpt": "The inventors prepared CD8^+ and CD4^+ CD19CAR/41BB T cells, which the inventors transduced to co-express an NFAT inducible GFP reporter gene."}, "[2]": {"tested_on": "CD8+ T cells expressing a CD19 CAR with 4-1BB costimulation", "assay": "Bioluminescence-based cytotoxicity assay, K562/CD19 target cells", "assay_type": "cell-based, human", "method": "Cytotoxicity: Target cells were stably transduced with ffluc_GFP and incubated in triplicate wells at 1×10^4 cells/well with effector T cells at an effector to target (E:T) ratio of 5:1. D-luciferin substrate (Biosynth, Staad, Switzerland) was added to the co-culture to a final concentration of 0.15 mg/ml and the decrease in luminescence signal in wells that contained target cells and T-cells was measured using a luminometer (Tecan, Mannedorf, Switzerland). Specific lysis was calculated using the standard formula.\nThe inventors prepared CD8+ CAR-T cell lines from n=3 healthy donors. In each of the T-cell lines, the inventors enriched CAR-expressing T cells to >90% purity using the EGFRt-transduction marker. The inventors analyzed cytolytic activity of CD8^+ CAR-T cells in a bioluminescence-based cytotoxicity assay using K562 that the inventors had transduced with either CD19 (for testing CD19 CAR-T cells) or ROR1 (for testing ROR1 CAR-T cells) as target cells. Dasatinib was added to the assay medium at the beginning of the assay.\nThe inventors prepared CD8^+ CAR-T cell lines from n=3 healthy donors. In each of the T-cell lines, the inventors enriched CAR-expressing T cells to >90% purity using the EGFRt-transduction marker. The inventors analyzed cytolytic activity of CD8^+ CAR-T cells in a bioluminescence-based cytotoxicity assay using K562 target cells that the inventors had transduced with CD19.\nThe CAR-T cell cytolytic activity was analyzed at 1-hour intervals for 10 hours.\nThe inventors analyzed cytolytic activity of CD8+ CAR-T cells in a bioluminescence-based cytotoxicity assay.\nThe inventors prepared CD8^+ CD19 CAR-T cell lines with a 4-1BB costimulatory domain from one healthy donor. In the T-cell line, the inventors enriched CAR expressing T cells to >90% purity using the EGFRt-transduction marker. The inventors analyzed cytolytic activity of CD8^+ CAR-T cells in a 4-hour bioluminescence-based cytotoxicity assay using K562 that the inventors had transduced with CD19 as target cells to assess the influence of a panel of Src-kinase inhibitors on the cytolytic function of CAR-T cells. Src-kinase inhibitors were added to the assay medium at the beginning of the assay over a 4-log concentration range."}, "[3]": {"tested_on": "activated CD19 CAR/4-1BB-T cells", "assay_type": "in vivo, NSG mice"}, "[4]": {"tested_on": "CD4+ T cells expressing a CD19 CAR with 4-1BB costimulation", "assay": "Multiplex cytokine analysis, co-culture with K562/CD19", "assay_type": "cell-based, human", "conditions": "dasatinib ≥25 nM; 20 h; compared to non-dasatinib treated CAR-T cells", "quoted_text": "A multiplex cytokine analysis was performed in supernatant removed from the co-culture."}, "[5]": {"tested_on": "PD-1 on CD19 CAR/4-1BB T cells", "assay": "Surface expression of PD-1 on human CAR-T cells by flow cytometry, intermittent dasatinib", "assay_type": "in vivo, NSG mice", "conditions": "intermittently treated (CAR/+)", "method": "In brief, cohorts of 1-12 mice were inoculated with 1×10^6 firefly-luciferase_GFP-transduced Raji tumor cells on day 0. […] Serial bioluminescence imaging was performed to determine tumor burden on day 7, 9 and 15.\nBased on the mouse model introduced in Example 11 (FIG. 21A), the inventors analyzed the surface expression of PD-1 on human CAR-T cells in bone marrow (BM), peripheral blood (PB) and spleen (SP) by flow cytometry."}, "[6]": {"tested_on": "CD8+ T cells expressing a ROR1 CAR with 4-1BB costimulatory domain", "assay": "CFSE proliferation assay, co-culture with K562/ROR1", "assay_type": "cell-based, human", "conditions": "dasatinib ≥50 nM; 72 h", "method": "Proliferation: T cells were labeled with 0.2 μM carboxyfluorescein succinimidyl ester (CFSE, Invitrogen), washed and plated in duplicate or triplicate wells with irradiated (80 Gy) stimulator cells at an E:T ratio of 4:1 (K562/ROR1, K562/CD19 or RCH-ACV). No exogenous cytokines were added to the culture medium. After a 72-hour incubation, cells were labeled with anti-CD3 mAb, and analyzed by flow cytometry to assess cell division of T cells.\nCAR-T cells were labeled with CFSE and co-cultured with K562 that the inventors had transduced with either CD19 (for testing CD19 CAR-T cells) or ROR1 (for testing ROR1 CAR-T cells). Dasatinib was added to the assay medium at the beginning of the co-culture assay. Flow cytometric analyses were performed to determine the proliferation of T cells at the end of the co-culture assay."}, "[7]": {"tested_on": "CD8+ T cells expressing a ROR1 CAR with 4-1BB costimulatory domain", "assay": "Cytokine production and secretion (IFN-γ, IL-2 ELISA), co-culture with K562/ROR1", "assay_type": "cell-based, human", "conditions": "dasatinib ≥50 nM; 20 h", "method": "Cytokine secretion: 5×10^4 T-cells were plated in duplicate or triplicate wells with target cells at an E:T ratio of 4:1 (K562/ROR1, K562/CD19, RCH-ACV), and IFN-γ and IL-2 were measured by ELISA, or cytokine panels were measured by multiplex cytokine immunoassay (Luminex) in supernatant removed after 20-h incubation. Specific cytokine production was calculated by subtracting the amount of cytokines released by unstimulated CAR-T cells from the amount of cytokines released after antigen-specific stimulation. The remaining cytokine secretion in % as shown in the diagrams is normalized to CAR-T cells in the absence of dasatinib-treatment (100%).\nCAR-T cells were co-cultured with K562 that the inventors had transduced with either CD19 (for testing CD19 CAR-T cells) or ROR1 (for testing ROR1 CAR-T cells). Dasatinib was added to the assay medium at the beginning of the co-culture assay. ELISA was performed to detect IFN-γ and IL-2 in supernatant removed from the co-culture."}, "[8]": {"tested_on": "CAR CD3 zeta at tyrosine 142", "assay": "Quantitative Western blot of phosphorylation in CD8+ CD19 CAR/4-1BB T cells", "assay_type": "cell-based, human", "conditions": "100 nM dasatinib; co-culture with RCH-ACV"}, "[9]": {"tested_on": "ZAP70 at tyrosine 319", "assay": "Quantitative Western blot of phosphorylation in CD8+ CD19 CAR/4-1BB T cells", "assay_type": "cell-based, human", "conditions": "100 nM dasatinib; co-culture with RCH-ACV"}, "[10]": {"conditions": "d+3, dasatinib not in effect any more"}},
  "note": "Read-outs that look alike come from different tables or passages of the source.",
  "data": [
    {"compound": "Cc1nc(Nc2ncc(C(=O)Nc3c(C)cccc3Cl)s2)cc(N2CCN(CCO)CC2)n1", "note": "[dasatinib]", "values": [
      {"measurement": "mean fluorescence intensity (MFI) for GFP in bone marrow CAR-T cells", "setting": "[1]; d+1, CAR/treated, 10687 CAR/untreated", "value": 6967},
      {"measurement": "reduction of GFP MFI, bone marrow CAR-T cells", "setting": "[1]; d+1, treated vs untreated", "value": 35, "unit": "%"},
      {"measurement": "reduction of GFP reporter gene expression, spleen CAR-T cells", "setting": "[1]; d+1, treated vs untreated", "value": 36, "unit": "%"},
      {"measurement": "difference in GFP between previously treated and untreated CAR-T cells, bone marrow", "setting": "[1]; [10]", "value": 10, "unit": "%"},
      {"measurement": "difference in GFP between previously treated and untreated CAR-T cells, spleen", "setting": "[1]; [10]", "value": 23, "unit": "%"},
      {"measurement": "specific lysis", "setting": "[2]; 0.1 μM dasatinib at the beginning of the assay, t=10 h", "value": "< 1", "unit": "%"},
      {"measurement": "specific lysis of target cells", "setting": "[2]; dasatinib 25 nM, t=6 h, 53% by non-dasatinib treated", "value": 26, "unit": "%"},
      {"measurement": "specific lysis of target cells", "setting": "[2]; dasatinib 25 nM, t=12 h, 93% by non-dasatinib treated", "value": 73, "unit": "%"},
      {"measurement": "specific lysis of target cells", "setting": "[2]; dasatinib 100 nM for 2 hours, then removed, at 10 hours", "value": "> 95", "unit": "%"},
      {"measurement": "specific lysis of target cells", "setting": "[2]; dasatinib 100 nM for 2 hours, then removed, at +4 hours", "value": 77, "unit": "%"},
      {"measurement": "specific lysis of target cells", "setting": "[2]; dasatinib ≤12.5 nM, t=12 h, 93% by non-dasatinib treated CAR-T cells", "value": "> 88", "unit": "%"},
      {"measurement": "specific lysis of target cells", "setting": "[2]; dasatinib ≥50 nM, t=12 h, 93% by non-dasatinib treated", "value": "less than 12%"},
      {"measurement": "specific lysis of target cells", "setting": "[2]; dasatinib ≥50 nM, up to t=6 h", "value": "less than 7%"},
      {"measurement": "specific lysis of target cells", "setting": "[2]; inhibitor 10 nM, 4-hour assay, 82% by untreated CAR-T cells", "value": 16.1, "unit": "%"},
      {"measurement": "serum level of IFN-γ", "setting": "[3]; day 12, CAR(ON/OFF/ON), 157 pg/ml in CAR(ON)", "value": 24, "unit": "pg/mL"},
      {"measurement": "serum level of IFN-γ", "setting": "[3]; day 14, dasatinib discontinued", "value": 38, "unit": "pg/mL"},
      {"measurement": "reduction of production and secretion of GM-CSF, IFN-γ, IL-2, IL-4, IL-5, IL-6, IL-8", "setting": "[4]", "value": "> 95", "unit": "%"},
      {"measurement": "PD-1 mean fluorescence intensity (MFI) on CAR-T cells, peripheral blood", "setting": "[5]; 4110 not exposed", "value": 2775},
      {"measurement": "PD-1 mean fluorescence intensity (MFI) on CAR-T cells, spleen", "setting": "[5]; 4318 not exposed", "value": 23652},
      {"measurement": "PD-1 mean fluorescence intensity (MFI) on CAR-T cells, bone marrow", "setting": "[5]; 9461 not exposed", "value": 7025},
      {"measurement": "residual proliferation compared to non-dasatinib treated CAR-T cells", "setting": "[6]", "value": "less than 7%"},
      {"measurement": "residual IFN-γ production compared to non-dasatinib treated CAR-T cells", "setting": "[7]", "value": "less than 3%"},
      {"measurement": "residual IL-2 production compared to non-dasatinib treated CAR-T cells", "setting": "[7]", "value": "less than 8.5%"},
      {"measurement": "phosphorylation compared to CAR-T cells co-cultured in the absence of dasatinib", "setting": "[8]", "value": 12.86, "unit": "%"},
      {"measurement": "phosphorylation compared to CAR-T cells co-cultured in the absence of dasatinib", "setting": "[9]", "value": 11.61, "unit": "%"}
    ]}
  ]
}
